# Assay results: US9375424B2, “Compounds that treat malaria and prevent malaria transmission” (The United States of America, as represented by the …, priority 2009, dated 2016)
# pIC50: −log10 of the molar value. Where a name gives a salt, the structure may show the parent alone. Read-outs that look alike come from different tables or passages of the source.
# Experiments:
# P. falciparum lines = experiment: qHTS SYBR Green Plasmodium proliferation assay in infected erythrocytes (seven parasite lines); assay type: cell-based; conditions: Erythrocyte, read-out: IC50, inhibition of proliferation in all parasite lines
# Protocol: The P. falciparum lines used in this study have been described previously (Mu J, et al. Multiple transporters associated with malaria parasite responses to chloroquine and quinine. Mol Microbiol 2003;49:977-989). […] Briefly, 3 μl culture medium was dispensed into 1536-well black clear-bottom plates (Aurora Biotechnologies) using a Multidrop Combi (Thermo Fisher Scientific Inc.); 23-nL compounds in DMSO were added by a pin tool (Kalypsys), and 5 μl of P. falciparum-infected RBCs (0.3% parasitemia, 2.5% hematocrit final concentration) were added. The plates were incubated at 37° C. in a humidified incubator in 5% CO2 for 72 h, and 2 μl lysis buffer (20 mM Tris-HCl, 10 mM EDTA, 0.16% saponin, 1.6% triton-X, 10× SYBR Green I supplied as 10,000× final concentration by Invitrogen) was added to each well. The plates were mixed for 25 sec with gentle shaking and incubated overnight at room temperature in the dark. The following morning, fluorescence intensity at 485 (14) nm excitation and 535 (25) nm emission wavelengths was measured on an En Vision (Perkin Elmer) plate reader. […] The plates were incubated at 37° C. under 5% CO2, 5% 02, and 90% N2 for 72 h, incubated for another 30 min after addition of 50 μl lysis buffer, and read in a FLUOstar OPTIMA reader (BMG Labtech). Data were analyzed using software at the NIAID Bioinformatic Resources (niaid-biocluster.niaid.nih.gov/cgi-bin/bipod2/index.cgi). Parasite proliferation was measured after 72 hr of incubation (corresponding to 1.5 generations of intra-erythrocytic parasite growth), with each compound tested at seven or eight five-fold dilutions beginning at 29 μM. […] The potencies of known antimalarial agents had similar values determined by the assay in 96-well plate format. […] Although the determined potencies of 4 were lower, the relative potency between lines sensitive to 4, HB3, 3D7, and D10 were clearly distinguished from resistant lines. […] The potencies of compounds scored as active or inconclusive in both replicates correlated well indicating good repeatability in determining IC50 values between replicates.
# [1] = test system: Plasmodium yoelii nigeriensis; assay type: in vivo; conditions: for oocyst formation: mosquito feeding 1 hr after treatment (FIG. 1A), untreated control average 460 oocysts per mosquito
# Protocol: Mice infected with Plasmodium yoelii nigeriensis were treated with drugs in different concentrations for various time periods and were exposed to mosquitoes. Oocysts were counted from dissected midgut 9-10 days after feeding. FIG. 1A, the number of oocysts from mosquitoes fed on mice treated with different TAA compounds for 1 hour. CAR, carbita Pentane (100 mg/kg); CHL, chlorpromazine (30 mg/kg); DEQ, dequalinium dichloride (10 mg/kg); Dox, doxipin hydrochloride (30 mg/kg); Ima, Imipramine (100 mg/kg), KET, ketotifen (100 mg/kg); Pro, protryptiline hydrochloride (10 mg/kg). FIG. 1B, the number of oocysts from mosquitoes fed on mice treated with different concentrations of ketotifen (KET) for 1 hour, compared with those treated with standard anti-malarial drugs, primaquine (PQ, 5 and 10 mg/kg), arteminisinin (ART, 5 mg/kg) and chloroquine (CQ, 10 mg/kg). FIG. 1C, the number of oocysts from mosquitoes fed on mice treated with a single dose of 0.5 mg/kg or 0.1 mg/kg of ketotifen (KET) for 1, 6 or 24 hours. FIG. 1D, the number of oocysts from mosquitoes fed on mice treated with two doses of 0.5 mg/kg or 0.1 mg/kg (filled symbol) of ketotifen (KET) for 1, 6 or 24 hours. CON, no drug control.
# For testing transmission-blocking activity in vivo, CD-1 strain female mice, aged 6-8 weeks old, were infected intra-peritoneally (i.p.) with 5×106 P. yoelii nigeriensis. In a preliminary experiment, on day 3 post infection the animals were administrated i.p. a single dose of tricyclic antihistamine and antidepressants (TAA) compound or pharmaceutical-grade phosphate buffer saline (pH 7.4). Starting 1 hr after the administration of the TAA compound, the animals were anesthetized and brought into contact with a colony of Anopheles stephensimosquitoes. The mosquitoes were allowed to feed on the mice. Unfed or partially engorged mosquitoes were removed from the cages. The mosquitoes were maintained for 9-10 days 24 ±1° C. and 80-90% relative humidity. The gametocytocidal activity of the test compound was accessed on the basis of the oocyst counts in mosquitoes fed on treated animals and a control group. In subsequent experiments, the gametocytocidal action of ketotifin at different concentrations and doses was evaluated similarly. One group was given a single dose of 0.1, 0.5, 1, 5, 10, 30 or 60 mg/kg on day 3 post infection and subjected to mosquito feeding 1 hr after compound administration. Primaquine, chloroquine and arteminsin were used as reference drugs. The other group was given one dose or two doses of 0.1 or 0.5 mg/kg at 4 hr interval and subjected to mosquito feeding 1, 6 or 24 hrs after the final drug administration.
# [2] = test system: P. falciparum gametocytes; experiment: killing of P. falciparum gametocytes in vitro; assay type: cell-based, Plasmodium falciparum
# [3] = 5 mg/kg single dose, treatment for 1 hr
# [4] = two doses of 0.5 mg/kg at 4 hours interval, 24-hour treatment
# [5] = all seven parasite lines, 72 h incubation
compound,measurement,setting,value
CCN(CC)CCCC(C)Nc1c2ccc(Cl)cc2nc2ccc(OC)cc12 (stereo not shown) [quinacrine],pIC50,P. falciparum lines; 72 h,> 5.70
CNCCCC1c2ccccc2C=Cc2ccccc21 [protryptiline hydrochloride],oocyst formation,[1]; 10 mg/kg single dose i.p.,strong reduction in oocyst formation
CN1CCC(=C2c3ccccc3CC(=O)c3sccc32)CC1 [ketotifen],average number of oocysts per mosquito,"[1]; 1 mg/kg single dose, treatment for 1 hr (FIG. 1B)",34 oocysts per mosquito
same,mosquitoes that had oocysts,[1]; [3],2 of 44
same,oocyst counts,[1]; [3],0.13 oocysts per mosquito
same,oocyst development,"[1]; 5 mg/kg single dose, treatment for 1 hr (FIG. 1B)",almost completely blocked oocyst development
same,oocyst formation,[1]; 100 mg/kg single dose i.p.,strong reduction in oocyst formation
same,"dose achieving similar reduction in oocyst count to primaquine, as share of the primaquine dose",[1]; relative to primaquine dose,10%
same,oocyst counts,"[1]; single dose 0.1 mg/kg, 24 hours prior to mosquito feeding (FIG. 1C)",82 oocysts per mosquito
same,oocyst counts,"[1]; single dose 0.5 mg/kg, 24 hours prior to mosquito feeding (FIG. 1C)",12 oocysts per mosquito
same,oocyst counts,"[1]; two doses of 0.1 mg/kg at 4 hours interval, 24-hour treatment time (FIG. 1D)",80 oocysts per mosquito
same,mosquitoes that had oocysts,[1]; [4],4 of 23
same,oocysts in the mosquitoes,[1]; [4],almost completely eliminated oocysts
same,oocyst counts,"[1]; two doses of 0.5 mg/kg at 4 hours interval, 24-hour treatment (FIG. 1D)",2 oocysts per mosquito
same,concentration that completely kills P. falciparum gametocytes in vitro,[2],0.5 µM
Cc1cc(N)c2ccccc2[n+]1CCCCCCCCCC[n+]1c(C)cc(N)c2ccccc21 [dequalinium dichloride],pIC50,P. falciparum lines; [5],> 5.70
COc1cc(NC(C)CCCN)c2ncccc2c1 (stereo not shown) [primaquine],mosquitoes that had oocysts,[1]; [3],7 of 21
same,oocyst counts,[1]; [3],6 oocysts per mosquito
CC(=O)O[C@H]1C(=O)[C@@]2(C)[C@H]([C@H](OC(=O)c3ccccc3)[C@]3(O)C[C@H](OC(=O)[C@H](O)[C@@H](NC(=O)c4ccccc4)c4ccccc4)C(C)=C1C3(C)C)[C@]1(OC(C)=O)CO[C@@H]1C[C@@H]2O [taxol],pIC50,P. falciparum lines; [5],> 5.70
